Key:
POMC gene expression = assay: Particle induced POMC gene expression, qRT-PCR in keratinocytes; type: cell-based, human; conditions: SRM1650b, control = 1
Protocol: (§1) Gene expression was analyzed via qRT-PCR.
(§2) Ginger root CO2 extract has been dissolved in DMSO and diluted in medium. […] Gene expression was analyzed via qRT-PCR. […] Table 7 compiles the results for ginger root CO2 extract altered POMC and IL-6 gene expression
(§3) Purple coneflower pressed juice has been dissolved directly in medium. […] Gene expression was analyzed via qRT-PCR. […] Table 8 compiles the results for purple coneflower pressed juice altered POMC and IL-6 gene expression
(§4) A mixture of purple coneflower pressed juice and ginger root CO2 extract has been pre-dissolved in DMSO and diluted in medium. […] Gene expression was analyzed via qRT-PCR. […] Table 9 compiles the results for purple coneflower pressed juice altered POMC and IL-6 gene expression

MMP1 gene expression = assay: Particle induced MMP1 gene expression, qRT-PCR in keratinocytes; type: cell-based, human; conditions: SRM1650b, control = 1
Protocol: as §1

CYP1A1 gene expression [1] = assay: CYP1A1 gene expression after induction with indoor particles, qRT-PCR in keratinocytes; type: cell-based, human; conditions: for Induction mean ± SE (CYP1A1): 10 μM, Huber990 1.5 μg/cm2, untreated = 1
Protocol: as §1

CYP1A1 gene expression [2] = assay: CYP1A1 gene expression after induction with outdoor particles, qRT-PCR in keratinocytes; conditions: for CYP1A1 Induction mean ± SE: NHEK adult, 10 μM, untreated = 1
Protocol: Adult human epidermal keratinocytes were cultured in keratinocyte medium without BPE and without EGF for 24 h prior to addition of model particles (see table 1.1). The model particles were suspended in phosphate buffered saline and were sonicated for 1 min and then directly added to the keratinocytes at 1.5 μg/cm^2. E/Z-2-benzylindene-5,6-dimethoxy-3,3-dimethylindan-1-one (BDDI) has been dissolved in DMSO and diluted in medium. Solutions containing the compound with maximal 0.1% DMSO were applied 2 h prior to treatment with the model particles. Gene expression was analyzed via qRT-PCR. For each gene, a specific PCR primer pair was designed as compiled in Table 2:
Adult human epidermal keratinocytes were cultured in keratinocyte medium without BPE and without EGF for 24 h prior to addition of model particles (see table 1.1). The model particles were suspended in phosphate buffered saline and were sonicated for 1 min and then directly added to the keratinocytes at 1.5 μg/cm^2. Sclareolide has been dissolved in DMSO and diluted in medium. Solutions containing the compound with maximal 0.1% DMSO were applied 2 h prior to treatment with the model particles. Gene expression was analyzed via qRT-PCR. For each gene, a specific PCR primer pair was designed (see Table 2).

IL-6 gene expression = assay: Particle induced IL-6 gene expression, qRT-PCR in keratinocytes; type: cell-based, human; conditions: SRM1650b, control = 1
Protocol: as §1, §2, §3, §4

Induction mean ± SE (CYP1A1) (CYP1A1 gene expression [1]; 6 h): 0.05 ± 0.00 | Induction mean ± SE (CYP1A1) (CYP1A1 gene expression [1]; 24 h): 0.20 ± 0.00 | inhibition of particle induced Cyp1A1 gene expression (in words) (CYP1A1 gene expression [1]; indoor model particles): capable to inhibit | CYP1A1 Induction mean ± SE (CYP1A1 gene expression [2]; 6 h, SRM1650 1.5 μg/cm2): 0.02 ± 0.00 | CYP1A1 Induction mean ± SE (CYP1A1 gene expression [2]; 6 h, SRM2975 1.5 μg/cm2, particle control 1.03): 0.20 ± 0.00 | CYP1A1 Induction mean ± SE (CYP1A1 gene expression [2]; 24 h, SRM2975 1.5 μg/cm2): 0.01 ± 0.00 | inhibition of particle induced Cyp1A1 gene expression (in words) (CYP1A1 gene expression [2]; outdoor model particles): capable to inhibit
Substance: E/Z-2-benzylindene-5,6-dimethoxy-3,3-dimethylindan-1-one [BDDI]
POMC 6 h (POMC gene expression; 1 μM): 0.9 ± 0.018 | POMC 6 h (POMC gene expression; 2.5 μM): 1.1 ± 0.02 | POMC 6 h (POMC gene expression; 10 μM): 0.9 ± 0.001 | MMP1 24 h (MMP1 gene expression; 1 μM): 0.7 ± 0.014 | MMP1 24 h (MMP1 gene expression; 2.5 μM): 0.8 ± 0.016 | MMP1 24 h (MMP1 gene expression; 10 μM): 0.5 ± 0.022 | IL-6 6 h (IL-6 gene expression; 1 μM): 0.9 ± 0.067 | IL-6 6 h (IL-6 gene expression; 2.5 μM): 0.6 ± 0.006 | IL-6 6 h (IL-6 gene expression; 10 μM): 0.5 ± 0.01
